Values joined by “and” are separate entries in the source; they are usually repeats but may differ in a detail not shown here. Equal entries are not always repeated.
How the values were obtained:
HDAC1 = molecular target: T1, HDAC1 (Homo sapiens, UniProt Q13547); assay: In vitro HDAC inhibition fluorescence assay, HDAC1; format: biochemical
T1 construct: purchased BPS Bioscience
Procedure: (§1) All of the HDAC enzymes were purchased from BPS Bioscience. In vitro HDAC inhibition assays were conducted as previously described. In brief, 20 μL of recombinant HDAC enzyme solution (HDAC1-9, 11) was mixed with various concentrations of the tested compound (20 μL). […] After incubation at 37 °C for 2 h, the catalysis was stopped by the addition of 10 μL of developer containing 30 mg/mL trypsin and 6 μM trichostatin A (TSA). Then, 30 min later, the fluorescence intensity was measured using a microplate reader at excitation and emission wavelengths of 360 and 460 nm, respectively. The inhibition ratios were calculated from the fluorescence intensity readings of tested wells relative to those of control wells, and the IC50 curves and values were determined by GraphPad Prism 6.0, using the “log(inhibitor) vs. normalized response-variable slope” function.

HDAC3 = molecular target: T2, HDAC3 (Homo sapiens, UniProt O15379); assay: In vitro HDAC inhibition fluorescence assay, HDAC3; format: biochemical
T2 construct: purchased BPS Bioscience
Procedure: as §1

HDAC8 = molecular target: T3, HDAC8 (Homo sapiens, UniProt Q9BY41); assay: In vitro HDAC inhibition fluorescence assay, HDAC8; format: biochemical
T3 construct: purchased BPS Bioscience
T3 sequence (Q9BY41 1-377): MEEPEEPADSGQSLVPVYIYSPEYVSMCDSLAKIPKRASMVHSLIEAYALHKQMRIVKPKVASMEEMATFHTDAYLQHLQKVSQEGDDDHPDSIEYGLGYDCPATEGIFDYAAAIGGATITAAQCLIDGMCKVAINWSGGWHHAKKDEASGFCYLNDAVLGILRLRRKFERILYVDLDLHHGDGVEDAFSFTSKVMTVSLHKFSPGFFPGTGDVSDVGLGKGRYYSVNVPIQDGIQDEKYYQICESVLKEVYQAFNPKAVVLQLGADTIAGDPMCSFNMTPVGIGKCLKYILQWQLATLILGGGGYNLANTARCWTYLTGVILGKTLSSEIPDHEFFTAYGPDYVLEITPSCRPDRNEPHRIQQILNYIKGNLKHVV
Procedure: (§2) All of the HDAC enzymes were purchased from BPS Bioscience. In vitro HDAC inhibition assays were conducted as previously described. In brief, 20 μL of recombinant HDAC enzyme solution (HDAC1-9, 11) was mixed with various concentrations of the tested compound (20 μL). The mixture was incubated at 37 °C for 1 h, and then, 10 μL of fluorogenic substrate (Boc-Lys (acetyl)-AMC for HDAC1, 2, 3 and 6; Boc-Lys (trifluoroacetyl)AMC for HDAC4, 5, 7, 8, 9 and 11) was added to achieve a final concentration of 50 μM. After incubation at 37 °C for 2 h, the catalysis was stopped by the addition of 10 μL of developer containing 30 mg/mL trypsin and 6 μM trichostatin A (TSA). Then, 30 min later, the fluorescence intensity was measured using a microplate reader at excitation and emission wavelengths of 360 and 460 nm, respectively. The inhibition ratios were calculated from the fluorescence intensity readings of tested wells relative to those of control wells, and the IC50 curves and values were determined by GraphPad Prism 6.0, using the “log(inhibitor) vs. normalized response-variable slope” function.

HDAC11 = molecular target: T4, HDAC11 (Homo sapiens, UniProt Q96DB2); assay: In vitro HDAC inhibition fluorescence assay, HDAC11; format: biochemical
T4 construct: purchased BPS Bioscience
T4 sequence (Q96DB2 1-347): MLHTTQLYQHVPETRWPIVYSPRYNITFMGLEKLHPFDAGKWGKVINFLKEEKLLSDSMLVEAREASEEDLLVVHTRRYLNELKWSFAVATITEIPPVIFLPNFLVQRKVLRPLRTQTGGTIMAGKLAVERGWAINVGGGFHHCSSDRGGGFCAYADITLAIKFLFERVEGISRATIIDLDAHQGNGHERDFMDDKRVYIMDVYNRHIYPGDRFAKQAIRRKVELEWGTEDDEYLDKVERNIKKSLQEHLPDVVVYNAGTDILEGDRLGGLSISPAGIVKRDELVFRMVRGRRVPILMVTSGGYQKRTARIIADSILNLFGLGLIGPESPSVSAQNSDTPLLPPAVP
Procedure: as §2

MV4-11 cells = assay: Cell viability assay (resazurin), MV4-11; format: cell-based; conditions: Homo sapiens, MV4-11, 72 h; read-out: IC50 anti-proliferative activity MV4-11
Procedure: (§3) The AML cell lines MV4-11, THP-1, KASUMI-1 and HL-60 were purchased from Procell Life Science & Technology Co., Ltd. (Wuhan, China). THP-1 and KASUMI-1 were cultured in RPMI-1640 complete medium containing 10% fetal bovine serum and 1% penicillin and streptomycin. MV4-11 was cultured in IMDM complete medium containing 10% fetal bovine serum and 1% penicillin and streptomycin. HL-60 was cultured in IMDM complete medium containing 20% fetal bovine serum and 1% penicillin and streptomycin. All cell lines were cultured in an incubator with humidity set at 95%, temperature at 37 °C and 5% CO2.
(§4) MV4-11, THP-1, KASUMI-1 and HL-60 cells were plated in 96-well transparent plates (10,000 to 15,000 cells/100 μL) and after incubation overnight, cells were treated with gradient-diluted inhibitors with several concentrations. After the cells were incubated with inhibitors for 72 h, 1 mg/mL of Resazurin (Sigma-Aldrich, Saint Louis, MO, USA) was added (working concentration was 0.1 mg/mL). After incubation at 37 °C for about 3 h, the fluorescence intensity of […] was measured at 560 nm/590 nm (excitation/emission) with a Spectra Max i3 Microplate Reader, and the cell viability was determined. The IC50 curve was drawn using GraphPad Prism 9.5 software.

HL-60 cells = assay: Cell viability assay (resazurin), HL-60; format: cell-based; conditions: Homo sapiens, HL-60, 72 h; read-out: IC50 anti-proliferative activity HL-60
Procedure: as §3, §4

[1] = tested on: MV4-11, THP-1, HL60 and Kasumi-1 cells; assay: Cell viability assay, four AML cell lines together; format: cell-based; conditions: 72 h; read-out: IC50 values against four AML cell lines (range)
Procedure: as §3, §4

[2] = In vitro stability in rat plasma; format: in vitro ADME; conditions: 37 °C, within 24 h, degradation beginning after about 8 h
Procedure: Equal samples were collected, and 600 μL acetonitrile was added to quench enzyme reactions. The reaction mixture was swirled for 30 s and then centrifuged at 15,000 rpm at 4 °C for 15 min. The supernatant of each sample was analyzed directly by HPLC (1260 Infinity II, Agilent Technologies, Waldbronn, Germany).

T2 sequence (O15379 whole entry): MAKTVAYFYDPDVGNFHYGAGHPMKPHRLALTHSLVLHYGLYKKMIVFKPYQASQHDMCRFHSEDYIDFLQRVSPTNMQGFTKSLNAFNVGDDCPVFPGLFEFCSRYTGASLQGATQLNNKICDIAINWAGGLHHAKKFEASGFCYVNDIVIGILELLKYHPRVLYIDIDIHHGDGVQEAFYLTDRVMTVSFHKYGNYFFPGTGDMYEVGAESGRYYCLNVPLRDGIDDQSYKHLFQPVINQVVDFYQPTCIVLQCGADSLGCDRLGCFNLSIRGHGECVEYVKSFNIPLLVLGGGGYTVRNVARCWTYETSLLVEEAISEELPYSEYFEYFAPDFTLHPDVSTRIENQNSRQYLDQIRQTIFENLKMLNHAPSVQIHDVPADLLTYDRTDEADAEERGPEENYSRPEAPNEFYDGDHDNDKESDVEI
T2 sequence (Q9Y618 395-489 partner limits assumed): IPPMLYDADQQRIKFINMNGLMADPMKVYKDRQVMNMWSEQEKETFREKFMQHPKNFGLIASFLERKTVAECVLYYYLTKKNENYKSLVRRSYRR
T1 sequence (Q13547 whole entry): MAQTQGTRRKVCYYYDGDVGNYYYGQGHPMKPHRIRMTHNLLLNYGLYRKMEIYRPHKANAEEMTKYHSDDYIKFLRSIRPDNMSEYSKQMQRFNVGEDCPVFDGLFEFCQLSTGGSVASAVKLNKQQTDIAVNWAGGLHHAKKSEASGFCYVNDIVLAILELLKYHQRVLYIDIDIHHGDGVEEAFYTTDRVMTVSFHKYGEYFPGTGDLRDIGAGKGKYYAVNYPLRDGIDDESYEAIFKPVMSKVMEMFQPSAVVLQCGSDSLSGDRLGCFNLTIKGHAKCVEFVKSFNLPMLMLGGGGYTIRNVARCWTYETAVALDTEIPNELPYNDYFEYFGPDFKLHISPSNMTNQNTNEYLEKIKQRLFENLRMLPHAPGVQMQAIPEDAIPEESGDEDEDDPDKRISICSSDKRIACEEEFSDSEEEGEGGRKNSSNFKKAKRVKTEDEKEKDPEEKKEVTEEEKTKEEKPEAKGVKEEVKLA

SMILES: CCCNNC(=O)C=Cc1ccc(CNCCc2ccccc2)cc1 [Compound 25c, 3-(4-((Phenethylamino)methyl)phenyl)-N′-propylacrylohydrazide]
- IC50 (HDAC1): 28.1 nM and 28 nM
- Inhibition Rate of HDAC1 (%) (HDAC1; 10 nM, 0.01 µM): 31.1 ± 2.1%
- inhibition at 0.01 µM (HDAC1; 10 nM, read-out: Inhibition Rate of HDAC1 (%)): 31.1 ± 2.09%
- inhibition at 0.1 µM (HDAC1; 100 nM, read-out: Inhibition Rate of HDAC1 (%)): 83.6 ± 0.4%
- IC50 (HDAC3): 2.4 nM and 2.39 nM and 2.3 nM
- inhibition at 0.01 µM (HDAC3; 10 nM, read-out: Inhibition Rate of HDAC3 (%)): > 95%
- inhibition at 0.1 µM (HDAC3; 100 nM, read-out: Inhibition Rate of HDAC3 (%)): 95.1 ± 0.1%
- IC50 (HDAC8): 4110 ± 630 nM
- IC50 (HDAC11): > 10000 nM
- IC50 (MV4-11 cells): 340 ± 117 nM
- IC50 (HL-60 cells): 480 ± 177 nM
- IC50 [1]: 338 to 480 nM
- degradation in rat plasma [2]: 35.60%

Reference: publication PMC11204923, “Marine Cytotoxin Santacruzamate A Derivatives as Potent HDAC1-3 Inhibitors and Their Synergistic Anti-Leukemia Effects with Venetoclax” (Marine Drugs, 2024)
